Results on four substances are retold here after patent US20250049888A1, “USE OF THE NEGR1 PROTEIN AND BIOLOGICALLY ACTIVE FRAGMENTS THEREOF IN THE THERAPEUTIC TREATMENT OF ALK-RELATED DISEASES” (FONDAZIONE TELETHON ETS (70%), priority 2021, published 2025).

For one experiment, the system named is ERK1/2. Nature of the experiment: ERK1/2 phosphorylation in N2a cells, western or dot blotting. In kind it is cell-based, murine. The conditions noted are these: 10 minutes; for ERK1/2 phosphorylation (phospho-ERK/ERK): synthetic peptides, 10 μM. The procedure:
Protein level and relative phosphorylation was assessed by western blotting. Briefly, upon a wash in PBS, cells were solubilized in lysis buffer (150 mM NaCl, 50 mM HEPES, 0.5% NP40, 1% sodium-deoxycholate). After 1 hour under mild agitation, the lysate was clarified by centrifugation for 20 min at 16,000 g. All experimental procedures were performed at 4° C. Protein concentrations were evaluated via Bradford assay (Bio-Rad, USA). For Western blotting experiments, an equal amount of proteins was diluted with 0.25% 5× Laemmli buffer. The samples were separated on 10% SDS-PAGE gels which were transferred onto nitrocellulose membrane (Sigma-Aldrich) at 80 V for 120 min at 4° C. Primary antibodies were: Beta-actin (Santa Cruz Biotechnology, sc-47778), ALK (Santa Cruz Biotechnology, sc-398791), N-myc (Santa Cruz Biotechnology, sc-56729), Phospho-p44/42 MAPK (Erk1/2) (Thr202/Tyr204) (Cell Signaling Technology), p44/42 MAPK (Erk1/2) (137F5) Rabbit mAb (Cell Signaling Technology), Akt (pan) (11E7) Rabbit mAb (Cell Signaling Technology), Phospho-Akt (Ser473) (D9E) XP® Rabbit mAb (Cell Signaling Technology), S6 Ribosomal Protein (5G10) Rabbit mAb (Cell Signaling Technology). Antibodies were applied overnight in blocking buffer (20 mM Tris, pH 7.4, 150 mM NaCl, 0.1% Tween 20, and 5% nonfat dry milk). Proteins were detected using the ECL prime detection system (GE Healthcare). The ECL signals were acquired with the imaging ChemiDoc Touch system (Bio Rad Laboratory Italy, Segrate, Italy). The optical density of the specific bands was quantified with ImageLab software (Bio Rad).
ALK triggers a signaling cascade that involves ERK and AKT kinases phosphorylation.
Additionally, the N2a cells were treated with the following synthetic peptides: the synthetic version of PepA-1 (synPepA-1), a scramble peptide including the GDKISV sequence (scr-GDKISV, substituting the W, tryptophan, that can undergo oxidation, with I, Isoleucine), and a scramble peptide (10 μM, 10 minutes). […]

Experiment [1] relates to N2a cells. Briefly: N2a cell growth, MTT assay. In kind it is cell-based, murine. The procedure:
(§1) The 3-(4,5-dimethylthiazol-2-yl)-2,5-diphenyl tetrazolium bromide (MTT) assay was performed to evaluate culture vitality. N2a cells were cultured in a 96-well plate at a concentration of 5×10^3 cell/cm^2. Treatment condition is indicated in the result section. At the end of the treatment, the MTT solution was added to the cell medium at a final concentration of 0.25 mg/mL. The incubation lasted 30 minutes at 37° C. Next, the medium was removed and the formazan precipitates were collected in DMSO (200 μL). The absorbance was measured at 570 nm using a spectrophotometer (Varioskan LUX, Thermofisher) as a proxy for cell viability. Relative cell viability fold is expressed over the control condition.
At the physiological level, Negr1 exists as a GPI-anchored membrane-bound protein and as a soluble protein released upon metalloprotease cleavage (Sanz et al. 2015; Pischedda and Piccoli 2015). Thus, the inventors studied whether ectopic treatment with soluble recombinant Negr1 (Negr1) might modulate cancer cell growth. […] At DIV5, cellular growth was evaluated by MTT assay.
To further narrow down the minimal biologically active sequence within PepA, the PepA structure was analysed in silico. […] At DIV5, cellular growth was evaluated by MTT assay.

In the next experiment the test system is SH-SY5Y (neuroblastoma). Briefly: Growth of human cancer-derived cell line, MTT assay. In kind it is cell-based. The conditions noted are these: 200 ng daily, vs GFP. On the procedure: as §1
(§2) Next, the capability of Negr1 and peptide PepA to halt the growth of human cancer-derived cell lines, namely U87 (glioblastoma), SK-Mel5 (melanoma), MCF7 (breast adenocarcinoma), A549 (adenocarcinoma alveolar basal epithelial cells), and SH-SY5Y (neuroblastoma) was tested. To this aim, each line was treated daily with 200 ng GFP, rNegr1, or PepA. At DIV5, cellular growth was evaluated by MTT assay. […] Such results are in good agreement with the expression of the receptor ALK, that has been experimentally detected in cancer cell lines of ectodermal origin (including small cell lung carcinoma, breast carcinoma, melanoma, neuroblastoma, and glioblastoma) (Dirks et al. 2002).

Experiment [2] deals with A549 (adenocarcinoma alveolar basal epithelial cells). The description is as above. In kind it is cell-based. Particulars: 200 ng daily, vs GFP. The procedure:
as §1, §2

The next experiment deals with U87 (glioblastoma). Described as above. Particulars: 200 ng daily, vs GFP. In kind it is cell-based. The procedure: as §1, §2
For another experiment, the system named is SK-Mel5 (melanoma). The experiment is described as above. Particulars: 200 ng daily, vs GFP. In kind it is cell-based. The procedure: as §1, §2
Experiment [3] concerns MCF7 (breast adenocarcinoma). Described as above. In kind it is cell-based. Particulars: 200 ng daily, vs GFP. The procedure:
as §1, §2

Experiment [4] has as its system N2a cells. Nature of the experiment: N2a proliferation, cell number at DIV5. It counts as cell-based, murine. Particulars: 200 ng daily, vs GFP. On the procedure: Next, 10,000 naive N2a cells were seeded and treated daily with 200 ng Negr1, PepA, PepB, PepC, or GFP. At DIV5, cell number was evaluated.

On to “NRGDKISVSVSSSSGGRAWDWDIAKPGLAILTF (Scramble-GDKISV) [scr-GDKISV]”, for which the “ERK1/2 phosphorylation (phospho-ERK/ERK)” value in the experiment on ERK1/2 is “reduced ERK1/2 phosphorylation”.
Consider “GDKWSV (minimum active sequence) [GDKWSV peptide]”, for which the “ERK1/2 phosphorylation (dot-blot)” value in the experiment with ERK1/2 (30 nM) was “severe reduction of ERK1/2 phosphorylation”.
In the case of “Negr1: soluble recombinant full-length Negr1 protein, Strep-FLAG tagged, expressed and purified from HEK293 cells”, the “N2a growth (MTT) at DIV5” value with N2a cells [1] (200 ng daily, vs GFP) was “significantly reduced N2a growth”. The “N2A growth / cellular vitality (MTT) at DIV5” value in the experiment with N2a cells [1] (3 μM daily, vs vehicle (Lorlatinib) or GFP (rNegr1, PepA-1)) is “impaired N2A growth to a similar extent”. Besides, the “growth of SH-SY5Y cells (MTT) at DIV5” value with SH-SY5Y (neuroblastoma) is “significantly reduce the growth”. Also, in experiment [2], the “growth of A549 cells (MTT) at DIV5” value is “significantly reduce the growth”. Further, the “growth of U87 cells (MTT) at DIV5” value with U87 (glioblastoma) is recorded as “significantly reduce the growth”. Moreover, in the experiment on SK-Mel5 (melanoma), the “growth of SK-Mel5 cells (MTT) at DIV5” value is “significantly reduce the growth”. In experiment [3], the “growth of MCF7 cells (MTT) at DIV5” value is “significantly reduce the growth”. Moreover, in the experiment with N2a cells [4], the “N2a proliferation (cell number) at DIV5” value is recorded as “significantly reduced N2a proliferation”.
Consider “DGASKGAWLNRSSIIFAGVWGSKDDPRVSISTL (PepA-1-6aa scramble) [reference compound]”, for which the “ERK1/2 phosphorylation (phospho-ERK/ERK)” value in the experiment with ERK1/2 was “did not alter ERK phosphorylation”.
